In brackets after ≈: the same amount, converted by molar mass.
What was measured:
guinea pig skin = experiment: continuous irritative test of guinea pig skin (Draize method); format: in vivo, guinea pig (Hartley series); parameters: key: sum of erythema (0-4) + edema (0-4) scores; max 8
Experimental: Each left and right two spots (4 spots/head) of applying parts having a frame of 2 cm x 2 cm were provided on the back of a shaved guinea pig (Hartley series, 7 weeks of age, female, N = 10), and each 50 µL of an ethanol/propylene glycol (7 : 3) solution containing 0.5 % of the respective acyl glucosamine derivatives shown in the following Table 1 was applied once a day on the respective frames.
A skin irritative score after application for 3 days straight was evaluated according to the following evaluation criteria (Draize method). The above irritative score was shown by the total points (full marks: 8 points) of erythema and edema.
• Erythema: • Evaluation point • 0: no erythema • 1: very weak erythema • 2: clear erythema • 3: middle to strong erythema • 4: very strong erythema to crust
• Evaluation point • 0: no edema • 1: very slight edema formation • 2: slight edema formation • 3: middle edema formation • 4: strong edema formation

[1] = solubility in the ethanol/propylene glycol (7 : 3) solvent (Japanese Pharmacopoeia criteria); format: physicochemical; conditions: organic solvent or mixture, 20°C, within 30 minutes, amount of solvent for 1 g or 1 ml of solute
[2] = tested on: skin roughness in the inside of a forearm formed with 10 % SDS solution; experiment: skin roughness-improving test (SDS-induced roughness, stratum corneum conductance); format: in vivo, human being; conditions: hydrophilic ointment with 0.05 %, twice a day, 3 days later; conductance relative to ointment with no tested substance = 100
Experimental: The skin roughness-improving degree observed 3 days later after application was evaluated using a change in a stratum corneum water content as an index. The stratum corneum water content is measured in terms of a conductance (µS). […] Skin roughness-improving rate (%) = [(conductance observed when applying the ointment blended with the tested substance)/(conductance observed when applying the ointment blended with no tested substance)] × 100 [formula]

[3] = tested on: pigmentation on the backs of color guinea pigs irradiated with UV rays; experiment: whitening evaluation on UV-induced pigmentation; format: in vivo; conditions: 30 µL of 0.05 % in ethanol/propylene glycol (7 : 3), once a day, five times a week, 4 weeks; visual change in pigmentation
Source text: Back body hair of color guinea pigs were shaved by means of a hair clipper and a shaver, and they were irradiated with UV rays once a day, 4 times a week and 8 times in total, whereby 4 parts of pigmentation having an area of about 2.25 cm^2 were formed on the backs of the respective guinea pigs.

[4] = tested on: wrinkles of the back skin of hairless mice irradiated with UVB; experiment: wrinkle-improving test in UVB-irradiated hairless mice; format: in vivo, hairless mice (hos: HR-1); conditions: 100 µL of 0.05 % in ethanol/propylene glycol (7 : 3), once a day, five times a week, 8 weeks, after 10 weeks UVB 50 mJ/cm^2; visual score relative to control group
Experimental: Evaluation point 1: all fine striations along the spine are not observed; a few shallow and coarse wrinkles run perpendicularly to the head-to-tail direction; and the striations appear or disappear with the motion of the mouse. […] The respective bodies were evaluated by an evaluation point of a 0.5 unit to calculate an average point for the respective groups, and the wrinkle-improving rate was calculated for the respective groups according to the following equation (II). Wrinkle-improving rate (%) = [(average value of the control group-average value of a glucosamine derivative-applied group)/(average value of the control group)] × 100 [formula]

[5] = tested on: texture of the back skin of hairless mice irradiated with UVB; experiment: coarse texture-improving test in UVB-irradiated hairless mice (skin replica); format: in vivo, hairless mice (hos: HR-1); conditions: 100 µL of 0.05 % in ethanol/propylene glycol (7 : 3), five times a week, 4 weeks, after 6 weeks UVB 40 mJ/cm^2; texture intersection points relative to start of test; control 24
Source text: The enlarged photographs of the respective replicas were taken through a macro lens (magnification: four times), and the photographs were used to evaluate "coarsening of the texture". The coarseness of the texture was defined by a "number of texture intersection point", wherein a point in which three or more sulci cutis are joined is counted as one intersection point, and the number of the texture intersection points present in a square of 1 cm x 1 cm was counted on the replica photograph. An average point for the respective groups was calculated, and the texture-improving rate was calculated according to the following equation (III). Table 4. Texture-improving rate (%) = [(number of texture intersection point after irradiating with UV or after application)/(number of texture intersection point at the time of starting the test)] × 100 [formula]

acnes of acne patients = experiment: acne-improvement evaluation with an essence for acne; format: in vivo; conditions: essence with 0.05 %, a month later; for Evaluation ×: number of subjects rated × : worsened; for Evaluation Δ: number of subjects rated Δ : no change; for Evaluation ⊚: number of subjects rated ⊚ : notably improved, several times a day; for Evaluation ○: number of subjects rated ○ : improved; for Acne treating effect: subjects rated ○ or ⊚
Experimental: Prepared was an essence for acne shown in the following composition example in which 0.05 % of various acyl glucosamine derivatives shown in the following Table 6 was blended. An essence which was not blended with an acyl glucosamine derivative was prepared as a control.

[6] = Table 2, by stereoisomer ratio, 0.5 % in ethanol/propylene glycol (7 : 3) once a day, 3 days straight, full marks 8
[7] = Table 1, 50 µL of 0.5 % in ethanol/propylene glycol (7 : 3) once a day, after 3 days straight, total points of erythema and edema, full marks 8, N = 10

Row | solubility at 0.5 h [1] | Compound | Draize score (guinea pig skin; [6]) | Skin roughness-improving rate [2] | Whitening-improving effect [3] | Draize score (guinea pig skin; [7]) | Wrinkle-improving rate [4] | Texture-improving rate [5] | Evaluation × (acnes of acne patients) | Evaluation Δ (acnes of acne patients) | Evaluation ⊚ (acnes of acne patients) | Evaluation ○ (acnes of acne patients) | Acne treating effect (acnes of acne patients) | Draize score (guinea pig skin; guinea pig, in vivo)
1 | 1000 to 10000 µg/mL (≈ 2.17 to 21.7 mM) | CC1=C(/C=C/C(C)=C/C=C/C(C)=C/C(=O)N[C@H]2C(O)O[C@H](CO)[C@@H](O)[C@@H]2O)C(C)(C)CCC1 [N-retinoyl-D-glucosamine (cis isomer/trans isomer = 0/100), N-retinoyl-D-glucosamine] | 0.0 |  |  |  |  |  |  |  |  |  |  | 
2 |  | CCCCCCCCCCCCOC(=O)N[C@H]1C(O)O[C@H](CO)[C@@H](O)[C@@H]1O (stereo partly drawn) [N-dodecyloxycarbonyl-D-glucosamine] |  | 183% | +++ |  |  |  |  |  |  |  |  | 
3 | 1000 to 10000 µg/mL (≈ 1.59 to 15.9 mM) | CC(=O)OC[C@H]1OC(OC(C)=O)[C@H](NC(=O)/C=C(C)/C=C/C=C(C)/C=C/C2=C(C)CCCC2(C)C)[C@@H](OC(C)=O)[C@@H]1OC(C)=O (single isomer, unassigned) [1,3,4,6-tetra-O-acetyl-N-retinoyl-D-glucosamine] | 0.0 |  |  |  |  |  |  |  |  |  |  | 
4 |  | CC(C)CCCCCCCCCCCCCCC(=O)N[C@H]1C(O)O[C@H](CO)[C@@H](O)[C@@H]1O (stereo partly drawn) [N-isostearoyl-D-glucosamine] |  | 136% | + | 0.1 | 80% | 72% | 0 | 2 | 0 | 3 | 60 percentage | 
5 |  | CC(=O)OC[C@H]1OC(OC(C)=O)[C@H](NC(=O)/C=C(C)/C=C/C=C(C)/C=C/C2=C(C)CCCC2(C)C)[C@@H](OC(C)=O)[C@@H]1OC(C)=O (stereo partly drawn) [1,3,4,6-tetra-O-acetyl-N-retinoyl-D-glucosamine] |  |  |  | 0.0 |  |  |  |  |  |  |  | 
6 |  | 1,3,4,6-tetra-O-acetyl-N-retinoyl-D-glucosamine | 0.0 |  |  |  |  |  |  |  |  |  |  | 
7 |  | N-POE(10)docosyletheroxycarbonyl-D-glucosamine |  | 138% | ++ |  | 82% | 88% | 0 | 3 | 0 | 2 | 40 percentage | 0.1
8 |  | CCCCCCCCCCCC(=O)N[C@H]1C(O)O[C@H](CO)[C@@H](O)[C@@H]1O (stereo partly drawn) [N-lauroyl-D-glucosamine] |  | 114% | + | 0.1 | 78% | 87% | 1 | 1 | 0 | 1 | 33 percentage | 
9 |  | N-retinoyl-D-glucosamine |  | 127% | +++ |  | 89% | 75% | 0 | 0 | 4 | 2 | 100 percentage | 
10 |  | N-retinoyl-D-glucosamine [N-retinoyl-D-glucosamine (9-cis isomer/13-cis isomer/trans i] | 0.1 |  |  | 0.1 |  |  |  |  |  |  |  | 
11 |  | N-POE(5)octadecyletheroxycarbonyl-D-glucosamine |  | 128% | ++ |  | 73% | 92% | 0 | 3 | 0 | 2 | 40 percentage | 0.2
12 |  | CCCCCCCC/C=C\CCCCCCCC(=O)N[C@H]1C(O)O[C@H](CO)[C@@H](O)[C@@H]1O (stereo partly drawn) [N-oleoyl-D-glucosamine] |  | 114% | +++ | 0.2 | 65% | 59% | 0 | 2 | 0 | 3 | 60 percentage | 
13 |  | CC1=C(/C=C/C(C)=C/C=C/C(C)=C/C(=O)O)C(C)(C)CCC1 [Retinoic acid, reference compound] |  |  |  | 8.0 |  |  |  |  |  |  |  | 
14 |  | N-POE(2)hexadecyletheroxycarbonyl-D-glucosamine |  | 139% | ++ |  | 72% | 89% | 0 | 2 | 0 | 3 | 60 percentage | 0.1
15 |  | N-retinoyl-D-glucosamine [N-retinoyl-D-glucosamine (13-cis isomer/trans isomer = 0.5/99.5)] | 0.0 |  |  |  |  |  |  |  |  |  |  | 
16 |  | CCCCC/C=C\C/C=C\CCCCCCCC(=O)N[C@H]1C(O)O[C@H](CO)[C@@H](O)[C@@H]1O (stereo partly drawn) [N-linoleoyl-D-glucosamine] |  | 115% | ++ | 0.3 | 62% | 58% | 1 | 3 | 0 | 1 | 20 percentage | 
17 |  | N-retinoyl-D-glucosamine [N-retinoyl-D-glucosamine (9-cis isomer/trans isomer = 0.5/99.5)] | 0.1 |  |  |  |  |  |  |  |  |  |  | 

Reference: patent EP1941863A2, “External preparation composition” (Lion Corporation, priority 2002, dated 2004)
